According to patent US20240327335A1, “AMIDE COMPOUND HAVING IODOARYL OR IODOHETEROARYL, PREPARATION METHOD THEREFOR AND USE THEREOF” (CARDIOLINK SCIENCE (SHENZHEN) MEDICAL TECHNOLOGY …, priority 2022, published 2024):

SMILES | melting point
COC(CNC(=O)COc1c(I)cc(I)cc1I)OC [Compound I-10] | 170 to 171 °C
COC(CNC(=O)c1cc(I)ccc1I)OC [Compound I-7] | 165 to 166 °C
COC(CNC(=O)c1ccc(I)cc1)OC [Compound I-6] | 156 to 158 °C
O=CCNC(=O)c1cc(I)cc(I)c1I [Compound I-8] | 90 to 92 °C

The next lines start with the values.

melting point | SMILES
178 to 180 °C | COC(CNC(=O)c1ccc(I)cn1)OC [Compound I-9]
172 to 173 °C | COC(CNC(=O)Cc1cc(I)cc(I)c1I)OC [Compound I-11]
180 to 182 °C | COC(CNC(=O)c1cc(I)cc(I)c1I)OC [Compound I-1, N-(2,2-dimethoxyethyl)-2,3,5-triiodobenzamide]
